In brackets after ≈: the same amount, converted by molar mass. Entries after “also recorded” stand apart in the source; their conditions may differ. Like-named read-outs stand apart in the source and are kept apart here.
How the values were obtained:
[1] = Human microsomal stability; type: in vitro ADME; settings: t was 60 minutes
Procedure: (§1) Select compounds described herein were evaluated for structure-activity analyses for anti-plasmodial activity in vitro. For Dd2 EC50 (M), calculations were for n=3. For HepG2 EC50 (M), calculations were for n=1. For the human microsomal stability determination, t was 60 minutes.
To determine microsomal stability for selected compounds, a reaction plate was prepared by adding 691.25 μL, pre-warmed (37° C.) microsomal solution (0.63 mg/mL protein in 100 mM KPO4 with 1.3 mM EDTA) to an empty well of a 96 well plate and maintained at 37° C. The diluted 0.1 mM compound (8.75 μL) is added to the microsomal solution in the reaction plate and mixed thoroughly by repeated pipetting. The resulting solutions were pre-incubated for 5 minutes at 37° C. before preparing the T=0 plates. For the T=0 plates, an aliquot (160 μL) of each reaction solution was added to an empty well of a 96 well plate, as an exact replicate of the Reaction Plate. Cold (4° C.) MeOH (400 μL) is added to each well and mixed thoroughly by repeated pipetting. NADPH Regeneration solution (40 μL) is added to each well and mixed thoroughly by repeated pipetting. For the T=60 minute Incubation Plates (without NADPH), an aliquot (160 μL) of each reaction solution was added to an empty well of a 96 well plate, as an exact replicate of the Reaction Plate. LC-MS grade H2O (40 μL) is added to each well and mixed thoroughly by repeated pipetting. The plate was sealed and incubated at 37° C. for the incubation period. After incubation, cold (4° C.) MeOH (400 μL) is added to each well and mixed thoroughly by repeated pipetting. For the T=60 minute Incubation Plates, NADPH (95 μL) was added to the remaining solution (microsomes+test compound) in each well in the previously-prepared reaction plate to initiate the reaction. The plate was sealed and incubated at 37° C. for the incubation period. An aliquot (100 μL) was removed from each well at the desired time point and dispensed into a well of a 96-well plate. 200 μL of cold (4° C.) MeOH was […] the reaction.

Kinetic solubility assay = type: physicochemical; settings: 24 °C, kinetic from dmso stock, ambient temperature
[2] = PAMPA, Corning Gentest Pre-coated PAMPA plate; type: in vitro ADME; settings: 1×PBS, pH 7.4, five hours, ambient temperature, read-out: Permeability (log Pe, in [cm/s]) (converted)
Procedure: For selected compounds, a Parallel artificial membrane permeability assay (PAMPA) analysis was conducted. The 10 mM DMSO stock solutions for selected compounds (Tan003-M03, ent-Tan003-M03, Tan003-O08, and Tan003-D20) were diluted 50 fold with 1×PBS, pH 7.4, for a dose concentration of 200 µM and a volume of 300 μL in the Donor compartment of the Corning Gentest Pre-coated PAMPA plate. After preparation of the Donor plate, any precipitation was noted. The Acceptor compartment was filled with 1×PBS (200 μL), pH 7.4. After careful assembly of the PAMPA plate, it was left to incubate for five hours in the dark at ambient temperature. The previously prepared solubility assay was used to measure the initial concentration of the sample in buffer (C0). After the incubation was complete, the PAMPA plate was disassembled, and the samples were transferred from the Donor and Acceptor plates to 96-well plates for analysis by chemiluminescent nitrogen detection (CLND. The C0 plate was filtered prior to analysis by CLND.

[3] = system: synchronized parasite cultures (Dd2); test: Stage specific parasite inhibition (Giemsa smears, flow cytometry); type: cell-based, P. falciparum; settings: for parasite stage development, Giemsa staining: 3×IC50, synchronized Dd2 cultures treated at ring, trophozoite or schizont stages, smears every 12 hours; for parasite stage progression, flow cytometry: 3×IC50, synchronized Dd2 cultures, YoYo-I DNA staining
Procedure: Select compounds described herein were evaluated for stage specific inhibition of parasite development. Tightly synchronized parasite cultures (Dd2) were treated with 3×IC50 concentrations of compound Tan003-M03 (“M03”), compound ent-Tan003-D20 (“D20-ent”), compound Tan003-O08 (“008”) or compound Tan002-O12 (“012”) at early ring, late ring, trophozoite, and schizont stages. Every 12 hours, Giemsa smears were made for treated cultures and samples were also collected and fixed for flow cytometry. […] Prior to flow analysis, fixed samples were permeabilized, RNase treated, and stained with YoYo-I as described in Bouillon et al., 2013. […] As the parasite matures, the DNA content increases and peaks start to spread to the right because of schizogony. Following reinvasion parasitemia increases in the next growth cycle, which is represented by an increase in peak height.

[4] = system: HepG2 human hepatoma cells; test: HepG2 cytotoxicity, MTS cell proliferation assay; type: cell-based; settings: 48 h, n=1
Procedure: as §1
Selected compounds were evaluated for cytotoxicity using HepG2 human hepatoma cells. A 384-well clear bottom plate was seeded with 2,500 cells/well and incubated for 24 h. Serial dilutions of the compound (were added to the plate and plates were incubated for an additional 48 h. Viability of cells were assessed by MTS [(3-(4,5-dimethylthiazol-2-yl)-5-(3-carboxymethoxyphenyl)-2-(4-sulfophenyl)-2H-tetrazolium) cell proliferation assay (CellTiter 96® Aqueous non-radioactive cell proliferation assay, Promega) (See Cory et al., Cancer Communications, 3, 1991, p. 207-212).

Asynchronous cultures = test: Parasitocidal or parasitostatic determination (rate of killing); type: cell-based; settings: for parasitocidal activity (rate of killing): 3×IC50, asynchronous cultures treated for 12, 24, 48, or 72 hours, washed, monitored for continued growth
Procedure: Asynchronous cultures were grown and treated with compounds, vehicle control or Dihydroartemisinin at 3×IC50 to determine their respective rate of killing curves. Cultures were treated for 12, 24, 48, or 72 hours with compound, washed several times to remove any inhibitor, and monitored for continued growth for several days. […] Overall, the exemplary compounds including, but not limited to, Tan003-M03 and ent-Tan003-D20 are parasitocidal agents blocking parasite maturation at the segmenter stage preventing egress, a novel mechanism of action absent among current antimalarials.

P. falciparum Dd2 = test: Anti-plasmodial growth inhibition, SYBR green I-based DNA quantification; type: cell-based; settings: Plasmodium falciparum, 72 h incubation, n=3
Procedure: as §1
Different dilutions of the compound in RPMI 1640 (Life Technologies) from a stock of 10 mM in dimethyl sulfoxide (DMSO) were added to the culture at a 1% parasitemia and 2% hematocrit in 96-well black plates (Santa Cruz Biotechnology). Maximum DMSO concentration in the culture never exceeded 0.25%. Chloroquine at 1 μM was used as a positive control to determine the baseline value. Following 72 h incubation at 37° C., the ability of the compounds to inhibit growth of the parasite was determined by a SYBR green I-based DNA quantification assay (See Bennett et al., 2004, Chemother. 48, 1807-1810; see also Johnson et al., 2007, Antimicrob. Agents. Chemother. 51, 1926-1933; Smilkstein et al., 2004, Antimicrob. Agents. Chemother. 48, 1803-1806). EC50 was calculated (n=3) from a dose response curve that was generated from a concentration range of 0-20 μM using GraphPad Prism v5.0.

[5] = Plasma pharmacokinetics and liver distribution study in female BALB/c mice; type: in vivo, mouse; settings: 100 mg/kg, female BALB/c mice; for Tmax: mouse, plasma, read-out: Tmax (plasma)
Procedure: A plasma pharmacokinetics and liver distribution study of selected compounds, including Pyrrolopyridine-008 (2015-foleyc-216), Pyrrolopyridine-D20-ent (2015-foleyc-217), and Pyrrolopyridine-M03 (2015-foleyc-218), in female BALB/c mice was conducted following a single intraperitoneal and oral administration. […] The blood samples were collected from a set of […] mice at each time point in labeled micro centrifuge tube containing K2EDTA as anticoagulant. Plasma samples were separated by centrifugation at 4000 rpm for 10 min and stored below −70° C. until bioanalysis. After collection of blood sample, animals were humanely euthanized by carbon dioxide asphyxiation to collect liver from Group 1 and Group 2 at all the time points. The collected tissues were rinsed in PBS and were homogenized with nine times of liver weight in ice cold phosphate buffer saline (pH 7.4) and stored below −70° C. until bio-analysis. Total homogenate volume was ten times the tissue weight. All samples were processed for analysis by protein precipitation using acetonitrile and analyzed with fit-for-purpose LC-MS/MS method (LLOQ: 2.01 ng/mL for plasma and 50.30 ng/g for liver). Pharmacokinetic parameters were calculated using the non-compartmental analysis tool of Phoenix WinNonlin® (Version 6.3).

[6] = 50 mM NaPO4 pH 6.5 buffer, pH 6.5, aqueous buffer, 50 mM NaPO4 pH6.5, 2.0% DMSO, read-out: Solubility LogS, at pH 6.5 (converted)
[7] = 1×PBS pH 7.4 buffer, pH 7.4, aqueous buffer, 1×PBS pH7.4, 2.0% DMSO, read-out: Solubility LogS, at pH 7.4 (converted)
[8] = SGF pH 1.2 buffer, pH 1.2, simulated gastric fluid, SGF pH1.2, 2.0% DMSO, read-out: Solubility LogS, at pH 1.2 (converted)

SMILES | Human microsomal stability (%) [1] | solubility at 24 h (Kinetic solubility assay; [6]) | solubility at 24 h (Kinetic solubility assay; [7]) | solubility at 24 h (Kinetic solubility assay; [8]) | Papp at 5 h, 200 µM [2] | parasite stage development, Giemsa staining [3] | parasite stage progression, flow cytometry [3] | EC50 [4] | parasitocidal activity (rate of killing) (Asynchronous cultures) | EC50 (P. falciparum Dd2) | viable parasites in asynchronous culture (Asynchronous cultures; treatment for 72 hours) | Tmax ([5]; ip, single intraperitoneal dose) | Tmax ([5]; single oral dose) | plasma concentrations quantifiable till ([5]; single intraperitoneal dose) | plasma concentrations quantifiable till ([5]; single oral dose)
CC(C)NC(=O)N1Cc2cc(C(=O)NCC(F)(F)F)nc(-c3cccc(-c4cc5ccccc5o4)c3)c2[C@H]1CCO [Tan003-M03, (R)-4-(3-(benzofuran-2-yl)phenyl)-3-(2-hydroxyethyl)-N^2-isopropyl-N^6-(2,2,2-trifluoroethyl)-1,3-dihydro-2H-pyrrolo[3,4-c]pyridine-2,6-dicarboxamide] | 61.5% | 6.31 µM (≈ 3.57 µg/mL) | 7.94 µM (≈ 4.5 µg/mL) | 7.94 µM (≈ 4.5 µg/mL) | 3.98 ×10⁻⁶ cm/s | inhibit parasite development before egress | block parasite stage progression prior to egress | 45000 nM | parasitocidal and prohibit progression beyond segmenter stages; also recorded: parasitocidal and prevent any parasite development beyond the schizont stage when treated for at least 48 hours | 240 ± 70 nM |  |  |  |  | 
CC(C)(C)[S@@+]([O-])N1Cc2cc(C(=O)NCc3ccc4c(c3)OCO4)nc(-c3cccc(-c4cccnc4)c3)c2[C@H]1CCO [Tan003-O08, (R)-N-(benzo[d][1,3]dioxol-5-ylmethyl)-2-((R)-tert-butylsulfinyl)-3-(2-hydroxyethyl)-4-(3-(pyridin-3-yl)phenyl)-2,3-dihydro-1H-pyrrolo[3,4-c]pyridine-6-carboxamide] |  |  |  |  |  | inhibit parasite development before egress | block parasite stage progression prior to egress |  |  |  | significantly decreases viable parasites |  |  |  | 
CC(C)(C)[S@@+]([O-])N1Cc2cc(C(=O)NCc3ccc4c(c3)OCO4)nc(-c3cccc(-c4cccnc4)c3)c2[C@H]1CCO [Tan003-008] | < 1% | 10 µM (≈ 5.99 µg/mL) | 12.6 µM (≈ 7.54 µg/mL) | 158 µM (≈ 94.9 µg/mL) | 1.82 ×10⁻⁶ cm/s |  |  | 41000 nM |  | 530 ± 110 nM |  |  |  |  | 
CC(C)(C)[S@+]([O-])N1Cc2cc(C(=O)NCc3ccccc3F)nc(-c3cccc(-c4cccnc4)c3)c2[C@@H]1CCO [Tan003-D20] | <1% | 6.31 µM (≈ 3.61 µg/mL) | 7.94 µM (≈ 4.55 µg/mL) | 158 µM (≈ 90.8 µg/mL) | 2.4 ×10⁻⁶ cm/s |  |  |  |  | 380 ± 20 nM |  |  |  |  | 
CC(C)(C)[S@@+]([O-])N1Cc2cc(C(=O)NCc3ccccc3F)nc(-c3cccc(-c4cccnc4)c3)c2[C@H]1CCO [ent-Tan003-D20, (R)-2-((R)-tert-butylsulfinyl)-N-(2-fluorobenzyl)-3-(2-hydroxyethyl)-4-(3-(pyridin-3-yl)phenyl)-2,3-dihydro-1H-pyrrolo[3,4-c]pyridine-6-carboxamide] |  |  |  |  |  | inhibit parasite development before egress | block parasite stage progression prior to egress | 60000 nM | parasitocidal and prohibit progression beyond segmenter stages; also recorded: parasitocidal and prevent any parasite development beyond the schizont stage when treated for at least 48 hours | 380 ± 90 nM |  |  |  |  | 
CC(C)NC(=O)N1Cc2cc(C(=O)NCC(F)(F)F)nc(-c3cccc(-c4cc5ccccc5o4)c3)c2[C@@H]1CCO [ent-Tan003-M03] | 62.7% |  | 6.31 µM (≈ 3.57 µg/mL) |  |  |  |  |  |  | 200 ± 20 nM |  |  |  |  | 
CCOC(=O)c1cc2c(c(-c3ccccc3)n1)[C@@H](CCO)N([S@+]([O-])C(C)(C)C)C2 [Tan002-O12, Ethyl (R)-2-((R)-tert-butylsulfinyl)-3-(2-hydroxyethyl)-4-phenyl-2,3-dihydro-1H-pyrrolo[3,4-c]pyridine-6-carboxylate] |  |  |  |  |  | inhibit parasite development before egress | block parasite stage progression prior to egress | > 100000 nM | not seen; also recorded: did not show any parasitocidal activity | 890 ± 130 nM |  | 60 min | 30 min | 12 h | 12 h
